The experiment deals with BSA (Bos taurus, UniProt P02769). The experiment in a line: biochemical.

These results are taken from article doi:10.1101/2023.06.29.547052v1 (biorxiv, 2023).

Molecules are shown by their SMILES.

Chain of BSA (P02769 25-607): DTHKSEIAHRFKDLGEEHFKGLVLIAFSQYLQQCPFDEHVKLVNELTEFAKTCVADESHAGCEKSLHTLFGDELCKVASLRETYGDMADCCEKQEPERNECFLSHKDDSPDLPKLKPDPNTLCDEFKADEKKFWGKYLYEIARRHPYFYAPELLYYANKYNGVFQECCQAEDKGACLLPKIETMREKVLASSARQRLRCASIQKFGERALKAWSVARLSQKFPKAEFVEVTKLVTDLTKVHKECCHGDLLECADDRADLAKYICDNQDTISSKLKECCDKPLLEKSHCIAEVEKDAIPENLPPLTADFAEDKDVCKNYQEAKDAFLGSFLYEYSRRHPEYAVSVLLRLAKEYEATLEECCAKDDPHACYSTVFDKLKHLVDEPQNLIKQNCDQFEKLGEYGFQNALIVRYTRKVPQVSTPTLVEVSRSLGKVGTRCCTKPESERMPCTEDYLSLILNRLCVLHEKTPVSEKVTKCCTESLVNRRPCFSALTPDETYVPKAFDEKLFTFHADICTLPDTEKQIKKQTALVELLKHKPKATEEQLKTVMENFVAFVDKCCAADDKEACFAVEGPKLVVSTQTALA

In general, Kd refers to the equilibrium constant for the complex coming apart. The low end stands for a tighter complex, the high end for a looser complex. Consider `C=CC1=C(C)C2=Cc3c(C=C)c(C)c4[n]3[Fe]([Cl])[n]3c(c(C)c(CCC(=O)O)c3=CC3=NC(=C4)C(C)=C3CCC(=O)O)=CC1=N2` [hemin], for which the Kd amounted to 1.78 ± 0.02 µM.
